According to patent US8354394B2, “Diuretics” (Merck Sharp & Dohme Corp., priority 2009, dated 2013):

Test system: beagle dogs
Test: canine telemetry protocol for blood pressure reduction efficacy
Type: in vivo
Details: male beagle dogs, 3 mg/kg oral gavage
Description: Compounds of the invention were evaluated for blood pressure reduction efficacy using the following canine telemetry protocol.
Male beagle dogs (approximately 1-3 years old) with a body weight of between 10 and 16 kg were surgically implanted with DSI radiotelemetry devices (model: TL11M2-D70-PCT). Briefly, under an inhalant anesthesia, isoflurane/oxygen mixture (1-3.5%/to effect), the body of the telemetry device was positioned and secured intra-abdominally. Subsequently, the arterial catheter of the telemetry device was passed subcutaneously to the inguinal area and introduced into the femoral artery and advanced to the level of the descending aorta. The catheter was secured with 2-0 silk ligatures. The muscle and underlying fascia was closed over the catheter using absorbable suture and the skin was closed using non-absorbable suture. The animals were allowed a minimum recovery period of 2 weeks between surgery and the evaluation of test compounds.
Compound evaluation consisted of a 3 day paradigm at a 3 mg/kg dose. On the first day, no compounds were administered during a 24 hour period of baseline data collection. Blood pressure and heart rate data were collected continuously for one minute periods at 10 minute intervals. On the days of compound administration half the animals received test article with the other half receiving the vehicle used for compound formulation. All test materials were administered by oral gavage in a volume of 1 mL/kg. Data are expressed either as raw values (mm Hg or beats per minute) or as the change from baseline (average value for about 12 hours in low activity period prior to dosing). Change is SBP (systolic blood pressure) and PP (pulse pressure) over time is shown below: […]

| SMILES | ΔPP (pulse pressure, change from baseline) 1-6 h [mm Hg] | ΔSBP (systolic blood pressure, change from baseline) 1-6 h [mm Hg] | ΔPP (pulse pressure, change from baseline) 6-12 h [mm Hg] | ΔSBP (systolic blood pressure, change from baseline) 6-12 h [mm Hg] | ΔPP (pulse pressure, change from baseline) 12-18 h [mm Hg] | ΔSBP (systolic blood pressure, change from baseline) 12-18 h [mm Hg] |
| --- | --- | --- | --- | --- | --- | --- |
| Cc1ncc2c(c1OC(=O)CCCC(C)O/N=[N+](\[O-])N(C)C(C)(C)C)CO[C@H]2c1ccc(Cl)cc1 (stereo partly drawn) [Example 14, (3S)-3-(4-Chlorophenyl)-6-methyl-1,3-dihydrofuro[3,4-c]pyridin-7-yl 5-({[(1Z)-2-tert-butyl-2-methyl-1-oxido-1λ^5-diazan-1-ylidene]amino}oxy)hexanoate] | −18 | −21 | −9 | −8 | −3 | 3 |
| Cc1ncc2c(c1OC(=O)CCC(C)CO/N=[N+](\[O-])N(C)C(C)(C)C)CO[C@H]2c1ccc(Cl)cc1 (stereo partly drawn) [Example 13, (3S)-3-(4-Chlorophenyl)-6-methyl-1,3-dihydrofuro[3,4-c]pyridin-7-yl 5-({[(1Z)-2-tert-butyl-2-methyl-1-oxido-1λ^5-diazan-1-ylidene]amino}oxy)-4-methylpentanoate] | −22 | −30 | −11 | −15 | −6 | −4 |
| Cc1ncc2c(c1OC(=O)[C@H]1CC[C@H](O/N=[N+](\[O-])N(C)C(C)(C)C)CC1)CO[C@H]2c1ccc(Cl)cc1 [Example 6, (3S)-3-(4-Chlorophenyl)-6-methyl-1,3-dihydrofuro[3,4-c]pyridin-7-yl trans-4-({[(1Z)-2-tert-butyl-2-methyl-1-oxidohydrazono]amino}oxy)cyclohexanecarboxylate] | −16 | −16 | −7 | −6 | −3 | −1 |
| Cc1ncc2c(c1OC(=O)O[C@@H](C)CCCCO/N=[N+](\[O-])N(C)C(C)(C)C)CO[C@H]2c1ccc(Cl)cc1 [Example 25, (2S)-6-({[(1Z)-2-tert-butyl-2-methyl-1-oxido-1λ^5-diazan-1-ylidene]amino}oxy)hexan-2-yl (3 S) 3-(4-chlorophenyl)-6-methyl-1,3-dihydrofuro[3,4-c]pyridin-7-yl carbonate] | −12 | −14 | −7 | −7 | −4 | 0 |
| Cc1ncc2c(c1OC(=O)[C@H]1CC[C@@H](O/N=[N+](\[O-])N(C)C(C)(C)C)CC1)CO[C@H]2c1ccc(Cl)cc1 [Example 5, (3S)-3-(4-Chlorophenyl)-6-methyl-1,3-dihydrofuro[3,4-c]pyridin-7-yl cis-4-({[(1Z)-2-tert-butyl-2-methyl-1-oxidohydrazono]amino}oxy)cyclohexanecarboxylate] | −10 | −11 | −3 | −2 | 1 | 2 |
| Cc1ncc2c(c1OC(=O)CCCCO/N=[N+](\[O-])N(C)C(C)(C)C)CO[C@H]2c1ccc(Cl)cc1 [Example 8, (3S)-3-(4-Chlorophenyl)-6-methyl-1,3-dihydrofuro[3,4-c]pyridin-7-yl 5-({[(1Z)-2-tert-butyl-2-methyl-1-oxido-1λ^5-diazan-1-ylidene]amino}oxy)pentanoate] | −12 | −15 | −8 | −12 | −4 | −2 |
